# Reference: patent US7998935B2, “Quinaldine based semisquaraines and squaraine dyes, process for preparation thereof and use thereof” (Council of Scientific and Industrial Research, priority 2006, dated 2011)
# Legend:
# [1] = Absorption and fluorescence emission spectra (photophysical properties); assay type: physicochemical
# Excerpt: Semisquaraine of the general formula 1 in which a quinaldine moiety is linked to the squaric acid through methylene bridge have absorption around 480 nm with high molar extinction coefficient (4.0×10^4 M^−1 cm^−1) which depends on the substitution on the quanaldine unit. […] The absorption and fluorescence emission spectra of representative semisquaraine of the general formula 1 where X=OH, Y=H, Z=H, R^2=CH3 are shown in FIG. 1.
# Similar to the semisquaraines the absorption spectra of these dyes were also dependent on the substitution on the quinaldine moiety. […] The presence of electron withdrawing groups in the quinaldine ring shifts the absorption maxima towards the blue region. […] The absorption and fluorescence emission spectra of representative symmetrical squaraine dye of the general formula 2, where X=I, Y=H, R^2=CH3 are shown in FIG. 2.
# The absorption and fluorescence emission spectra of representative unsymmetrical squaraine dyes of the general formula 3, where X=C6H11O6, Y=H, Q=I, Z=H, R^2=CH3, are shown in FIG. 4.
# [2] = test system: L1210 mouse lymphoma cells; experiment: Photocytotoxicity of squaraine dyes with and without visible light (cell survival / proliferation); assay type: cell-based; conditions: for toxicity in the dark: absence of light; for photocytotoxicity (% of cell survival with increasing concentration of dye): under illumination (visible light, 1000 W halogen lamp), on ice
# Procedure: FIG. 5: Photocytotoxicity of the squaraine dyes of general formula 2, where X=I, Y=H, R^2=CH3, and general formula 3, where X=OH, Y=H, Q=I, Z=H, R^2=CH3 in L1210 mouse lymphoma cells. Data gives the number of cell (% of controls) counted after 48 h after the treatment for 22.5 min at 0° C. with various concentrations of the squaraine dyes under dark and under irradiation. Data points represent the mean of three independent experiments (±SD).
# FIG. 6: Photocytotoxicity of the sugar linked and cholesterol-squaraine dyes of general formula 3, where X=C6H11O6, Y=H, Q=I, Z=H, R^2=CH3 and where X=C27H43O3, Y=H, Q=I, Z=H, R^2=CH3 L1210 mouse lymphoma cells. Data gives the number of cell (% of controls) counted after 48 h after the treatment for 22.5 min at 0° C. with various concentrations of the squaraine derivatives under dark and under irradiation. Data points represent the mean of three independent experiments (±SD).
# In order to analyze the cytotoxicity of the squaraine dyes of the general formula 2 wherein X=I, Y=H, R^2=CH3 and 3 wherein X=OH, Y=H, Q=I, Z=H, R^2=CH3, with and without visible light, the cloning efficiencies of L1210 mouse lymphoma cells exposed to various concentrations of the dyes were determined. The light exposure was carried out from a 1000 W halogen lamp at a distance of 33 cm in Ca^2+ and Mg^2+ free PBS (140 mM NaCl, 3 mM KCl, 8 mM […], pH 7.4) on ice (10^6 cells/mL). Illumination for 10 min corresponds to 225 kJ/m^2 between 400 and 800 nm. The cells were pelleted by centrifugation and resuspended in PBSG three times. The cells were resuspended at 3×10^4 cells/mL in fresh medium at 37° C. and the numbers of cells were counted repeatedly for 60 h. From the exponential part of the growth curves (between 24 and 60 h) the number of proliferating cells at the time of resuspension was calculated by extrapolation. Cell survival was defined as the ratio between proliferating and resuspended cells. Results obtained with representative quinaldine based squaraine dyes of the general formula 2 wherein X=I, Y=H, R^2=CH3 and 3 wherein X=OH, Y=H, Q=I, Z=H, are shown in FIG. 5.
# The cytotoxicity induced by squaraine dyes of the general formula 3 wherein X=C6H11O6, Y=H, Q=I, Z=H, R^2=CH3 and X=C27H43O3, Y=H, Q=I, Z=H, R^2=CH3 in mouse lymphoma cells L1210 with and without visible light, was carried out as explained in EXAMPLE 8. Results obtained with representative quinaldine based squaraine dyes of the general formula 3 wherein X=C6H11O6, Y=H, Q=I, Z=H, R^2=CH3 and X=C27H43O3, Y=H, Q=I, Z=H, R^2=CH3 are shown in FIG. 6.
# mammalian AS52 cells = experiment: Cytotoxicity in the presence and absence of light; assay type: cell-based
# Excerpt: In the present invention, we have investigated the cytotoxicity of these dyes in mammalian AS52 cells both in the presence and absence of light.
SMILES,absorption maxima ([1]; in methanol) [nm],toxicity in the dark [2],photocytotoxicity (% of cell survival with increasing concentration of dye) [2],other results
CCCCOc1c(C=C2C=Cc3cc(O)ccc3N2C)c(=O)c1=O,477,,,
CN1/C(=C/C2=C([O-])C(=C\c3ccc4cc(O[C@@H]5O[C@H](CO)[C@@H](O)[C@H](O)[C@H]5O)ccc4[n+]3C)/C2=O)C=Cc2cc(I)ccc21,,very less toxicity in the absence of light,dose dependent photocytotoxicity,cytotoxicity compared with diiodo squaraine dye of general formula 2 (X=I) (mammalian AS52 cells): more cytotoxic; cytotoxicity compared with hydroxyl-substituted squaraine dye of general formula 3 (X=OH) (mammalian AS52 cells): significantly high
CN1/C(=C/C2=C([O-])C(=C\c3ccc4cc(I)ccc4[n+]3C)/C2=O)C=Cc2cc(I)ccc21,,less toxic in the dark,dose dependent photocytotoxicity,absorption maxima ([1]; in DMSO): around 750 nm; emission maxima ([1]; in dimethyl sulfoxide (DMSO)): around 772 nm
CN1/C(=C/C2=C([O-])C(=C\c3ccc4cc(O)ccc4[n+]3C)/C2=O)C=Cc2cc(I)ccc21,,less toxic in the dark,dose dependent photocytotoxicity,
CCCCOc1c(C=C2C=Cc3cc(OCC)ccc3N2C)c(=O)c1=O,478,,,
